The supplement of paper PMC10307832

Columns and labels:
Assay in all cases: relative viability (nuclei count vs DMSO), 5 days (fraction); higher = more cells survive
[1] = compound: CCN(CCO)CCCC(C)Nc1ccnc2cc(Cl)ccc12 [Hydroxychloroquine] + C[C@]1(O)C[C@@H](c2nc(-c3ccc4ccc(-c5ccccc5)nc4c3)c3c(N)nccn32)C1 [Linsitinib] (partner 1 µM)
Summary of the method: (§1)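 One day after seeding in 1536-well plates, lung cancer cell lines were dosed by pin tool. Dosing was either single-drug or a fixed anchor-drug dose plus five library-drug doses (not always all listed) in √10 steps. After 5 days, nuclei were stained in one fix-and-stain step and counted on 4× images, and relative viability is the nuclei count of treated wells over that of vehicle wells, given as the median of duplicate plates.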

[2] = compound: CCN(CCO)CCCC(C)Nc1ccnc2cc(Cl)ccc12 [Hydroxychloroquine] + CC1(C)CCC(c2ccc(Cl)cc2)=C(CN2CCN(c3ccc(C(=O)NS(=O)(=O)c4ccc(N[C@H](CCN5CCOCC5)CSc5ccccc5)c(S(=O)(=O)C(F)(F)F)c4)cc3)CC2)C1 [Navitoclax] (partner 0.5 µM)
Summary of the method: as §1

[3] = compound: CCN(CCO)CCCC(C)Nc1ccnc2cc(Cl)ccc12 [Hydroxychloroquine] + COc1cc2c(Oc3ccc(NC(=O)C4(C(=O)Nc5ccc(F)cc5)CC4)cc3F)ccnc2cc1OCCCN1CCOCC1 [Foretinib] (partner 0.25 µM)
Summary of the method: as §1

[4] = compound: CCN(CCO)CCCC(C)Nc1ccnc2cc(Cl)ccc12 [Hydroxychloroquine] + CCNC(=O)c1noc(-c2cc(C(C)C)c(O)cc2O)c1-c1ccc(CN2CCOCC2)cc1 [Luminespib] (partner 0.01 µM)
Summary of the method: as §1

Cell Line | relative viability ([1]; first compound 0.5 µM) | relative viability ([1]; first compound 1.581 µM) | relative viability ([1]; first compound 5 µM) | relative viability ([1]; first compound 15.81 µM) | relative viability ([1]; first compound 50 µM) | relative viability ([2]; first compound 0.5 µM) | relative viability ([2]; first compound 1.581 µM) | relative viability ([2]; first compound 5 µM) | relative viability ([2]; first compound 15.81 µM) | relative viability ([2]; first compound 50 µM) | relative viability ([3]; first compound 0.5 µM) | relative viability ([3]; first compound 1.581 µM) | relative viability ([3]; first compound 5 µM) | relative viability ([3]; first compound 15.81 µM) | relative viability ([3]; first compound 50 µM) | relative viability ([4]; first compound 0.5 µM) | relative viability ([4]; first compound 1.581 µM) | relative viability ([4]; first compound 5 µM) | relative viability ([4]; first compound 15.81 µM) | relative viability ([4]; first compound 50 µM)
201T | 1.07 | 0.987 | 1.07 | 1 | 1.13 | 1.22 | 1.19 | 1.19 | 1.19 | 1.22 | 1.21 | 1.05 | 1.03 | 1.2 | 1.2 | 0.992 | 1.04 | 1.07 | 1.03 | 1.05
A549 | 0.617 | 0.543 | 0.576 | 0.646 | 0.629 | 1.24 | 1.09 | 1.26 | 1.29 | 1.19 | 0.953 | 0.905 | 0.951 | 0.952 | 1.11 | – | – | – | – | –
A-427 | 1.13 | 1.05 | 1.13 | 1.09 | 1.16 | 0.875 | 0.776 | 0.993 | 0.919 | 1.04 | 1.05 | 1.09 | 0.974 | 1.15 | 1.16 | 1.22 | 0.84 | 0.917 | 0.929 | 0.869
ABC-1 | 1 | 0.698 | 0.959 | 0.759 | 0.879 | – | – | – | – | – | 0.761 | 0.984 | 1.18 | 1.25 | 1.28 | 0.495 | 0.47 | 0.668 | 0.564 | 0.785
BEN | 0.87 | 0.929 | 0.872 | 0.973 | 1.15 | 0.051 | 0.0669 | 0.0688 | 0.0612 | 0.0766 | 0.647 | 0.634 | 0.588 | 0.567 | 0.577 | 0.382 | 0.331 | 0.309 | 0.311 | 0.33
CAL-12T | 0.916 | 0.75 | 0.773 | 0.866 | 0.886 | 1.06 | 1.22 | 1.21 | 1.23 | 1.23 | 0.974 | 1.04 | 1.04 | 1.33 | 1.06 | 0.286 | 0.319 | 0.363 | 0.511 | 0.373
COR-L23 | 0.989 | 0.872 | 0.947 | 0.997 | 1.02 | 1.03 | 0.926 | 1.24 | 1.31 | 1.12 | 1.04 | 0.993 | 1.02 | 0.994 | 1.18 | 0.683 | 0.662 | 0.818 | 0.948 | 0.705
COR-L 105 | 1.08 | 1 | 0.905 | 0.851 | 0.814 | 0.595 | 0.747 | 0.778 | 0.816 | 0.594 | 0.896 | 1.11 | 0.951 | 1.23 | 0.997 | 0.883 | 0.718 | 0.579 | 0.709 | 0.882
